In ChEMBL document CHEMBL5729184, “Purine derivatives and the use thereof as medicament” (2022):

Biological target: Glutamate receptor ionotropic, NMDA 2B (Homo sapiens, UniProt Q13224)
Experiment: FLIPR Assay: At the assay day cells were washed 3× with assay buffer, 10 μL buffer remained in the wells after washing. 10 μL Ca kit loading buffer (AAT Bioquest) was added to the cells and the plates were incubated with lid for 60 minutes at r.t. 20 μl assay buffer containing 60 μM glycine (20 μM final) and 3 μM glutamate (1 μM final) was added to column 1-23. Fluorescence (indicating the calcium influx as a result of the NR1/NR2B ion channel activation) was read on the FLIPRtetra device for 60 seconds to monitor the glutamate induced effects. After 2 minutes 20 μL of compound or controls (row 1-22) in assay buffer were carefully added to the wells. […] Each assay microtiter plate contained wells (in column 23 or 24) with DMSO controls instead of compound as controls for glycine/glutamate induced fluorescence (high controls) and wells with 1 μM of a reference NR2b NAM as low controls (Compound 22; reference: Layton, Mark E et al, ACS Chemical Neuroscience 2011, 2(7), 352-362).

Glutamate receptor ionotropic, NMDA 2B, sequence (Q13224 whole entry): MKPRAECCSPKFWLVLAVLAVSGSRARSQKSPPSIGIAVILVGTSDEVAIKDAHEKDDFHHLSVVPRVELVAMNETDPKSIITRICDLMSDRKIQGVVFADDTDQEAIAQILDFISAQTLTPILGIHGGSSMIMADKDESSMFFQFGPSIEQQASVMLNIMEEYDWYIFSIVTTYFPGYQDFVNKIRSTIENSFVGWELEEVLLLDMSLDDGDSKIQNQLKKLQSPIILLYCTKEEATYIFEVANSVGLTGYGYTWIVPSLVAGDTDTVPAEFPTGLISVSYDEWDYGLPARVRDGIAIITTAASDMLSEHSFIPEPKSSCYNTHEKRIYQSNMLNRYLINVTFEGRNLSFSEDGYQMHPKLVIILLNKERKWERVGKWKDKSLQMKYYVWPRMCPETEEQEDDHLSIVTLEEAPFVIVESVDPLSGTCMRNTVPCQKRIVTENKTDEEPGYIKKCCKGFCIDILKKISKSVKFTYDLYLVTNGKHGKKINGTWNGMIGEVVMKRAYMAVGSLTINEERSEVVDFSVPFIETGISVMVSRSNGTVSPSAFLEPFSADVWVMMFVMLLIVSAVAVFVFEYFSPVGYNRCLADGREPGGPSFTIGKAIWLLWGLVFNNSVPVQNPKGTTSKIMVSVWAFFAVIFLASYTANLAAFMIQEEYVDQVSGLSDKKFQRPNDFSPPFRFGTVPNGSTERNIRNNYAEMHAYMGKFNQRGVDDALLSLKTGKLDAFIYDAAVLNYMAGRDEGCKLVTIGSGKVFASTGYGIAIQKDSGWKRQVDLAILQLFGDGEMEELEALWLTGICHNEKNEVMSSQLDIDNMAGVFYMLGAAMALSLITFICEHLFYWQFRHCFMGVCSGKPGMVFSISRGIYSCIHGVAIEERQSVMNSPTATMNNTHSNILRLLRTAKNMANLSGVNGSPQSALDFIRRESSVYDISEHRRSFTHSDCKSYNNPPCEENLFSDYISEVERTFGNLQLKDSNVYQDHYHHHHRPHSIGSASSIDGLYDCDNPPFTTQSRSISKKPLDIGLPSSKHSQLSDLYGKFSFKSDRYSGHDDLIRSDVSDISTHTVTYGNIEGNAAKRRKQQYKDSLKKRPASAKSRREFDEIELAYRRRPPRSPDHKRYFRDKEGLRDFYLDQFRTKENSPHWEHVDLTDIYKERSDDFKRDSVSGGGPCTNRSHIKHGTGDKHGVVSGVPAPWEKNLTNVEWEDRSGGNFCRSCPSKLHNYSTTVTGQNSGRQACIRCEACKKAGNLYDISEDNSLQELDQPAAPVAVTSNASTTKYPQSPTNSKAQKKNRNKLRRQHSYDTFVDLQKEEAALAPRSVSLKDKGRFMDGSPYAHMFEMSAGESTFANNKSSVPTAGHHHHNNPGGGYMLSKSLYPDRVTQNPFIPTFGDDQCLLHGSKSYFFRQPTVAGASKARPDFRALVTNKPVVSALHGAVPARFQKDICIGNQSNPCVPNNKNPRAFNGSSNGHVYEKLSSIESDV

| SMILES | IC50 |
| --- | --- |
| Cc1cccc(COC(=O)N2CCOC(c3nc4cncnc4[nH]3)C2)c1 (stereo not given) | 322 nM |
| Cc1ncnc2[nH]c(C3CN(C(=O)OCc4ccc(F)cc4)CCO3)nc12 (stereo not given) | 637 nM |
| Cc1cc(F)ccc1COC(=O)N1CCOC(c2nc3cncnc3[nH]2)C1 (stereo not given) | 234 nM |
| Cc1ncnc2[nH]c(C3CN(C(=O)OCc4ccccc4F)CCO3)nc12 (stereo not given) | 385 nM |
| O=C(OCc1cccc(F)c1)N1CCOC(c2nc3cncnc3[nH]2)C1 (stereo not given) | 295 nM |
| Cc1cccc(F)c1COC(=O)N1CCOC(c2nc3cncnc3[nH]2)C1 (stereo not given) | 118 nM |
| O=C(OCc1ccc(F)c(F)c1)N1CCOC(c2nc3cncnc3[nH]2)C1 (stereo not given) | 520 nM |
| O=C(OCc1ccc(Cl)c(F)c1)N1CCOC(c2nc3cncnc3[nH]2)C1 (stereo not given) | 314 nM |
| Cc1ccc(COC(=O)N2CCOC(c3nc4c(C)ncnc4[nH]3)C2)cc1 (stereo not given) | 150 nM |
| Cc1c(F)cccc1COC(=O)N1CCOC(c2nc3cncnc3[nH]2)C1 (stereo not given) | 520 nM |

Compounds with a lower IC50, results first:

| IC50 | SMILES |
| --- | --- |
| 74 nM | O=C(OCc1ccccc1F)N1CCOC(c2nc3cncnc3[nH]2)C1 (stereo not given) |
| 83 nM | Cc1cccc(COC(=O)N2CCOC(c3nc4cncnc4[nH]3)C2)c1F (stereo not given) |
| 84 nM | O=C(OCc1c(F)cc(F)cc1F)N1CCOC(c2nc3cncnc3[nH]2)C1 (stereo not given) |
| 60 nM | O=C(OCc1cccc(F)c1F)N1CCOC(c2nc3cncnc3[nH]2)C1 (stereo not given) |
| 114 nM | O=C(OCc1ccccc1)N1CCOC(c2nc3cncnc3[nH]2)C1 (stereo not given) |
| 49 nM | Cc1ccc(COC(=O)N2CCOC(c3nc4cncnc4[nH]3)C2)c(F)c1 (stereo not given) |
| 67 nM | Cc1ccc(COC(=O)N2CCOC(c3nc4cncnc4[nH]3)C2)cc1 (stereo not given) |
| 88 nM | O=C(OCc1ccccc1Cl)N1CCOC(c2nc3cncnc3[nH]2)C1 (stereo not given) |
| 100 nM | Cc1ccc(COC(=O)N2CCO[C@H](c3nc4cncnc4[nH]3)C2)cc1F |
| 90 nM | O=C(OCc1ccc(F)cc1Cl)N1CCOC(c2nc3cncnc3[nH]2)C1 (stereo not given) |
| 111 nM | O=C(OCc1c(F)cccc1F)N1CCOC(c2nc3cncnc3[nH]2)C1 (stereo not given) |
| 102 nM | O=C(OCc1ccc(F)cc1F)N1CCOC(c2nc3cncnc3[nH]2)C1 (stereo not given) |
| 113 nM | O=C(OCc1ccc(Cl)cc1)N1CCOC(c2nc3cncnc3[nH]2)C1 (stereo not given) |
| 45 nM | O=C(OCc1ccc(C(F)F)cc1)N1CCOC(c2nc3cncnc3[nH]2)C1 (stereo not given) |
| 107 nM | O=C(OCc1ccc(F)cc1)N1CCOC(c2nc3cncnc3[nH]2)C1 (stereo not given) |
